Test results from PMC10257182, “Discovery of senolytics using machine learning” (Nature Communications, 2023).
Where “and” joins values, the source holds several entries; their conditions need not be identical. Equal entries are not always repeated. Where two headings read alike, the source gives them in different places.

How the values were obtained:
Type in all cases: cell-based, human
[1] = tested on: NOXA mRNA in senescent IMR90 ER:RAS cells; test: NOXA mRNA expression by RT-qPCR, OIS; settings: for NOXA mRNA expression: relative to ER:STOP DMSO = 1, individual replicate values
Description: (§1) Total RNA was isolated using RNAeasy kit (Quiagen). cDNA was generated with reverse transcriptase iScript (Bio-Rad). RT-qPCR was performed using SYBR Select Master Mix (Applied Biosystems) in OneStepPlus detection system (Applied Biosystems). Oligos for amplification were: NOXA Fw-[…] and Rv-[…]; b-ACTIN Fw-[…] and Rv-[…]; IL1a Fw-[…] and Rv- […]; IL1b Fw-[…] and Rv- […]; IL8 Fw-[…] and Rv-[…]; p16 Fw-CGGTCGGAGGCCGATCCAG and Rv- […]; p21Fw-[…] and Rv- […].

[2] = tested on: control IMR90 ER:STOP cells; test: Cell survival assay using crystal violet staining, OIS, control cells; parameters: % Cell Survival: concentration or dose not given beside the values; settings: for % Cell Survival / Mean (cell survival, Tukey test details): FIG 4B, ER:STOP cells; for % Cell Survival: individual replicate values, ER:STOP DMSO = 100; for Mean (cell survival, Tukey test details): mean of n=12 as fraction of STOP DMSO = 1
Description: Equal numbers of control and senescent cells were plated at high density on multiwell plates just before senolytic treatment addition. After treatment, cells were fixed on 0.5% glutaraldehyde (Sigma) and then dried at RT overnight. Then, wells were stained with crystal violet solution for 3 h, washed and dried. Once they were completely dry, the plates were scanned for records. Quantification was performed extracting the staining with 1% acetic acid and measuring the final solution by absorbance at 595 nm.

[3] = tested on: NOXA mRNA in IMR90 cells at passage 27; test: NOXA mRNA expression by RT-qPCR, replicative senescence; settings: for NOXA mRNA expression, group mean (Test details, Mean 2): Replicative Senescence (RS) cells, mean of n=3; for NOXA mRNA expression, group mean (Test details, Mean 2) / NOXA mRNA expression: 10 nM; for NOXA mRNA expression: Replicative Senescence cells, relative to Control DMSO = 1, individual replicate values
Description: as §1

[4] = tested on: non-senescent control A549 cells; test: Nuclei count senolytic assay, TIS model, non-senescent control cells; settings: for IC50: TIS model, non-senescent A549, nuclei count, 72 h; for % Cell Survival: control cells, single replicate
How it was run: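 A549 cells were made senescent with 100 μM etoposide for 48 h, then kept three days in normal media; non-senescent A549 served as controls. Compounds were dosed as a 10-point […] series (10 μM to 10 nM final) for 72 h in triplicate. Hoechst-stained nuclei were counted by imaging after fixation.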

SMILES | NOXA mRNA expression ([1]; ER:RAS cells, 10 nM) | % Cell Survival [2] | Mean (cell survival, Tukey test details) [2] | NOXA mRNA expression, group mean (Test details, Mean 2) [3] | NOXA mRNA expression [3] | % Cell Survival ([4]; log (dose) [M] -5) | % Cell Survival ([4]; log (dose) [M] -5.33) | % Cell Survival ([4]; log (dose) [M] -5.66) | % Cell Survival ([4]; log (dose) [M] -6) | % Cell Survival ([4]; log (dose) [M] -6.33) | % Cell Survival ([4]; log (dose) [M] -6.66) | % Cell Survival ([4]; log (dose) [M] -7) | % Cell Survival ([4]; log (dose) [M] -7.33) | % Cell Survival ([4]; log (dose) [M] -7.66) | % Cell Survival ([4]; log (dose) [M] -8) | other results
C[C@@H]1O[C@@H](O[C@H]2C[C@@H](O)[C@]3(CO)[C@H]4[C@H](O)C[C@]5(C)[C@@H](C6=CC(=O)OC6)CC[C@]5(O)[C@@H]4CC[C@]3(O)C2)[C@H](O)[C@H](O)[C@H]1O [Ouabain, ouabain, reference compound] | 4.99 and 3.07 and 6.94 and 6.96 | 100.7% and 91.1% and 79.5% and 88.8% and 108.2% and 92.7% and 95.3% and 93.9% and 97.9% and 80.1% and 99.8% and 95% | 0.9358 | 15.44 | 23.42 and 22.01 and 0.88 |  |  |  |  |  |  |  |  |  |  | cytotoxic activity (crystal violet), in words [2]: no cytotoxic activity
CO[C@H]1C[C@H](O[C@H]2CC[C@@]3(C)[C@H](CC[C@@H]4[C@@H]3CC[C@]3(C)[C@@H](C5=CC(=O)OC5)[C@@H](OC(C)=O)C[C@]43O)C2)O[C@@H](C)[C@@H]1O [Oleandrin, oleandrin] | 43.71 and 48.67 and 52.89 and 50.91 | 89.1% and 95.2% and 73.8% and 89.4% and 107.6% and 89% and 95.8% and 77.8% and 100% and 72.7% and 87.5% and 82.7% | 0.8838 | 56.63 | 62.46 and 54.37 and 53.07 | 0.2886% and 2.786% and 0% | 1.948% and 1.5% and 1.695% | 1.659% and 1.071% and 1.304% | 0% and 2.071% and 1.499% | 1.371% and 2.429% and 0.8475% | 4.113% and 2.929% and 1.89% | 5.267% and 9.857% and 3.977% | 0% and 0.07143% and 12.1252% | 49.3506% and 28.0313% | 102.742% | NOXA mRNA expression, group mean (Test details, Mean 2) ([1]; ER:RAS cells, 10 nM, mean of n=4): 49.05; NOXA mRNA expression, in words ([1]; OIS IMR90 ER:RAS, 10 nM (Fig. 5c)): significant increase; viability at 10 µM ([4]; Homo sapiens, A549, log (dose) [M] -5, Control cells, mean, read-out: Mean % Cell Survival): 1.02%; viability at 4.68 µM ([4]; Homo sapiens, A549, log (dose) [M] -5.33, Control cells, mean, read-out: Mean % Cell Survival): 1.71%; viability at 2.19 µM ([4]; Homo sapiens, A549, log (dose) [M] -5.66, Control cells, mean, read-out: Mean % Cell Survival): 1.34%; viability at 1 µM ([4]; Homo sapiens, A549, log (dose) [M] -6, Control cells, mean, read-out: Mean % Cell Survival): 1.19%; viability at 0.468 µM ([4]; Homo sapiens, A549, log (dose) [M] -6.33, Control cells, mean, read-out: Mean % Cell Survival): 1.55%; viability at 0.219 µM ([4]; Homo sapiens, A549, log (dose) [M] -6.66, Control cells, mean, read-out: Mean % Cell Survival): 2.98%; viability at 0.1 µM ([4]; Homo sapiens, A549, log (dose) [M] -7, Control cells, mean, read-out: Mean % Cell Survival): 6.37%; viability at 0.0468 µM ([4]; Homo sapiens, A549, log (dose) [M] -7.33, Control cells, mean, read-out: Mean % Cell Survival): 4.07%; viability at 0.0219 µM ([4]; Homo sapiens, A549, log (dose) [M] -7.66, Control cells, mean, read-out: Mean % Cell Survival): 25.8%; viability at 0.01 µM ([4]; Homo sapiens, A549, log (dose) [M] -8, Control cells, mean, read-out: Mean % Cell Survival): 34.2%; IC50 ([4]; Homo sapiens): 19.5 nM; NOXA mRNA expression, in words ([3]; replicative senescence IMR90, 10 nM (Fig. 5d)): significant increase
CO[C@H]1C[C@H](O[C@H]2CC[C@]3(C)[C@H]4CC[C@]5(C)[C@@H](C6=CC(=O)OC6)CC[C@]5(O)[C@@H]4CC[C@]3(O)C2)O[C@H](C)[C@H]1O[C@@H]1O[C@H](CO)[C@@H](O)[C@H](O)[C@H]1O [Periplocin, periplocin] | 6.84 and 6.41 and 10.09 and 3.28 | 103.3% and 93.7% and 87.3% and 112.7% and 104.8% and 100.7% and 97.3% and 88.4% and 100.5% and 85.6% and 102.9% and 98.7% | 0.9799 |  | 5.65 and 6.34 and 7.72 | 2.877% and 2.211% and 1.286% | 1.2112% and 8.916% and 0.7857% | 13.9288% and 0.7846% and 8% | 11.9606% and 5.492% and 5.857% | 37.7744% and 16.7618% and 24% | 65.1022% and 52.2111% and 60.0714% | 92.3543% and 73.8231% and 86.5714% | 116.881% and 101.07% and 106.714% | 102.877% and 112.197% and 103.071% | 99.8486% and 91.5121% and 100% | cytotoxic activity (crystal violet), in words ([2]; IMR90-ER:STOP proliferating control cells, 10 nM, 72 h): no cytotoxic activity; IC50 [4]: 267 nM; Mean % Cell Survival ([4]; log (dose) [M] -5, Control cells, mean): 2.124%; Mean % Cell Survival ([4]; log (dose) [M] -5.33, Control cells, mean): 3.638%; Mean % Cell Survival ([4]; log (dose) [M] -5.66, Control cells, mean): 7.571%; Mean % Cell Survival ([4]; log (dose) [M] -6, Control cells, mean): 7.77%; Mean % Cell Survival ([4]; log (dose) [M] -6.33, Control cells, mean): 26.1787%; Mean % Cell Survival ([4]; log (dose) [M] -6.66, Control cells, mean): 59.1283%; Mean % Cell Survival ([4]; log (dose) [M] -7, Control cells, mean): 84.2496%; Mean % Cell Survival ([4]; log (dose) [M] -7.33, Control cells, mean): 108.222%; Mean % Cell Survival ([4]; log (dose) [M] -7.66, Control cells, mean): 106.048%; Mean % Cell Survival ([4]; log (dose) [M] -8, Control cells, mean): 97.1202%
